Earlier results as cited in patent US20060228403A1, “Nutritional supplements for cardiovascular health” (priority 2005, published 2006).
Values belong to the compound of their own block, whether it stands above or below them.

Tests used:
[1] = system: platelet aggregation in cerebral arterioles; conditions: mice
thromboxane B2 = conditions: mice; fish oil daily by gavage six weeks; indomethacin 0.5 mg/kg ip acute
[2] = system: cytochrome P450 omega-hydroxylase; conditions: hamster; for magnitude of O2-induced constriction of arterioles in the cremaster and retractor muscles: 17-octadecynoic acid 10 micromolar superfusion, DDMS intravenous infusion
forearm microcirculation = conditions: after supplementation 4 g/d for 6 weeks

Compound: COc1ccc2c(c1)c(CC(=O)O)c(C)n2C(=O)c1ccc(Cl)cc1 [Indomethacin, indomethacin]
effect on arteriolar platelet aggregation [1]: significantly slows
increase of time to first arteriolar aggregate ([1]; 0.5 mg/kg ip acute): 35%
decrease of serum thromboxane B2 (thromboxane B2): 80%

Compound: C#CCCCCCCCCCCCCCCCC(=O)O [17-octadecynoic acid]
arteriolar constriction in response to elevated PO2 in the epithelial portion of the cheek pouch [2]: unaffected
magnitude of O2-induced constriction of arterioles in the cremaster and retractor muscles [2]: significant reduction

Compound: CS(=O)(=O)NC(=O)CCCCCCCCCC=C(Br)Br [N-methylsulfonyl-12,12-dibromododec-11-enamide]
arteriolar constriction in response to elevated PO2 in the epithelial portion of the cheek pouch [2]: unaffected
magnitude of O2-induced constriction of arterioles in the cremaster and retractor muscles [2]: significant reduction

plasma phospholipid DHA composition (forearm microcirculation): increased
Compound: CC/C=C\C/C=C\C/C=C\C/C=C\C/C=C\C/C=C\CCC(=O)O [DHA, docosahexaenoic acid]

plasma phospholipid EPA levels (forearm microcirculation): increased significantly
Compound: CC/C=C\C/C=C\C/C=C\C/C=C\C/C=C\CCCC(=O)O [EPA, eicosapentaenoic acid]
